This is an account of results in ChEMBL document CHEMBL3751696, “Mollisolactones A and B, novel dinormonoterpenes from the soft coral Sinularia mollis” (2016).

Molecules are shown by their SMILES. ≈ marks a conversion by molar mass, not a printed value. Calls of active or inactive are those of the source. No cut-off for these calls is given here.

One test deals with A549. Kind of test: Cytotoxicity against human A549 cells by MTT assay. The format is functional. The following applies: read-out: ED50 (the source's name). Background: Tetrazolium assays rely on reduction of a dye to a coloured formazan, in cell work by metabolically active cells.
For another test, the system named is HT-29. Nature of the test: Cytotoxicity against human HT-29 cells by MTT assay. The format is functional. To be noted: read-out: ED50 (the source's name).
The subject of the next test is P388. Kind of test: Cytotoxicity against mouse P388 cells by MTT assay. The format is functional. The following applies: read-out: ED50 (the source's name).
The next test has as its system Human betaherpesvirus 5. Nature of the test: Antiviral activity against Human cytomegalovirus at 50 ug/ml. The format is functional, organism-based.

For `CC(=O)CC1OC(=O)C=C1C` (stereo not drawn), the EC50 in the test with A549 was found to be 53 µg/mL (≈ 344 µM); in the test with HT-29, 51 µg/mL (≈ 331 µM); in the test with P388, 56 µg/mL (≈ 363 µM). Besides, the result in the test on Human betaherpesvirus 5 was inactive.

For `CC(=O)CC1C=C(C)C(=O)O1` (stereo not drawn), the results for the EC50 with A549, in the test with HT-29 and with P388 were 56 µg/mL (≈ 363 µM), 58 µg/mL (≈ 376 µM) and 52 µg/mL (≈ 337 µM), respectively. The outcome in the test with Human betaherpesvirus 5 was inactive.
